In US8119657B2, “Enantiomeric compositions of 2-amino-1-(2-isopropylpyrazolo[1,5-α]pyridin-3-yl)propan-1-one and related methods” (MediciNova, Inc., priority 2009, dated 2012):
Entries after “also recorded” stand apart in the source; their conditions may differ. Marks after values point to notes of the source that are not given here.

How the values were obtained:
[1] = Chiral and chemical stability in solution and on storage; assay type: physicochemical
Description: Without ascribing to any particular theory, the present inventors believe that the facile separation of enantiomers using the N-protected racemate of AV1013 is probably due to the greater stability of the racemate as well as the separate enantiomers in protected form. […] Unstability also stems from the ability of the free base to self condense. Because self-condensation is promoted in concentrated solutions, it is desirable to avoid highly concentrated solutions of the free base form of optically active AV1013. Likewise, the free base form of racemic AV1013 or its hydrochloride salt are also unstable, precluding their use as precursors to obtaining (S)-AV1013 as a free base or its hydrochloride salt in high yield and/or high purity.
Thus, it is often desirable to re-purify the de-protected product using purification techniques known in the art. For example, any one or more of the methods described above for separating chiral molecules, such as, chromatography (e.g., HPLC, GC, and SFC), crystallization, fractional crystallization, and the like may be used for re-purification. An exemplary method is recrystallization. Purification by recrystallization allows separation of the desired (S)-enantiomer in high purity, such that the overall reaction sequence including isolation of the desired (S)-enantiomer requires only a single chromatographic step (i.e., the chiral separation). Recrystallization can be carried out in any of a number of single or mixed solvent systems including alcohols, ethers, esters, nitriles, halogenated hydrocarbons, amides and aqueous mixtures thereof. Suitable solvents include methanol, ethanol, propanol, iso-propanol, acetone, tetrahyrofuran, methyl ethyl ketone, methyl isobutyl ketone, ethyl acetate, amyl acetate, acetonitrile, diethyl ether, methyl tert-butyl ether, dichloromethane, dichloroethane, chloroform, dimethylformamide, and combinations thereof. Illustrative mixed solvent systems used to recrystallize (S)-AV1013 are iso-propanol/methyl tert-butyl ether and ethanol/methyl tert-butyl ether.
The five-step route provided a 15% overall yield of (S)-AV1013.HCl. The chiral separation, by SFC chromatography, is the only chromatographic step required. Hydrolysis of the N-protected (S)-AV1013, followed by recrystallization from iso-propanol/methyl tert-butyl ether provided (S)-AV1013.HCl in greater than 99% chemical purity and greater than 97% S-enantiomer (greater than 94% enantiomeric excess (ee)) by chiral HPLC, as determined from the equation ee=[|R−S^51÷(R+S)]×100 ee=[|R−S|÷(R+S)]×100. […] Even under optimal storage and handling conditions to minimize exposure to moisture, a small degree of racemization (i.e., approximately 2%) was observed. Recrystallization was effective to improve enantiomeric purity to arrive at a product having an illustrative chiral purity as described above. […] The recrystallized (S)-AV 1013.HCl contained approximately 25 mole percent alcohol (less than about 10% by weight) even when dried at 50° C. Thus, it appears that the resultant product is formed as a solvate under the recrystallization and drying conditions employed.

[2] = tested on: rat chronic constriction injury model of neuropathic pain; assay: Rat chronic constriction injury model of neuropathic pain (von Frey mechanical allodynia); assay type: in vivo; conditions: for in vivo activity in a rat model of neuropathic pain: dose not stated
Description: The (S)- and the (R)-enantiomer of AV1013 were each evaluated in a rat chronic constriction injury model of neuropathic pain (see, Ledeboer et. al., Neuron Glia Biology, (2006), p 279-291), to determine whether differences in their activity could be observed.
To induce allodynia, male Sprague-Dawley rats underwent chronic constriction injury (CCI) to the sciatic nerve as described by Bennett and Xie, Pain 1988; 33(1):87-107. The plantar surface of the hind paws was stimulated with von Frey filaments (Stoelting) to induce a withdrawal response by blinded personnel. The bending force of fiber required to induce a 50% withdrawal response was calculated following CCI surgery (pre-dosing baseline).
Allodynic rats (N=5-6), received an oral administration of (S)-AV1013 (25 mg/kg), AV1013-R (100 mg/kg) or vehicle. Two hours post-dosing, 50% paw withdrawal threshold was determined by blinded testers using von Frey filaments. The 50% withdrawal threshold prior to CCI surgery, pre-dosing (10 days post-surgery), and 2 hours post-dosing are plotted in FIG. 3.

Rolipram binding site = assay: Inhibition of binding at the Rolipram binding site; conditions: 10 uM
[3] = Rat pharmacokinetics of the enantiomers after oral dosing of racemic AV1013; assay type: in vivo
Method: Three male Sprague-Dawley rats were dosed orally via gavage with 25 mg/kg racemic AV1013 dissolved in water. Serial blood samples were collected from the tail vein at 5, 15, and 30 min, 1, 3, and 6 hours post dosing. Samples were processed for plasma via centrifugation and plasma samples were stored frozen prior to analysis.
(§1) A sensitive and specific chiral HPLC/MS/MS bioanalytical method for the detection of (S)-AV1013 and (R)-AV1013 enantiomers in rat and dog plasma was utilized. AV1013 enantiomers and the internal standard (AV1040, an analog of AV1013) were isolated from plasma by protein precipitation induced by acetonitrile. After centrifugation to sediment the proteins, the supernatant fractions were analyzed by high performance liquid chromatography (LC) in conjunction with a triple quadrupole mass spectrometer that used electrospray ionization in tandem with positive ionization (MS/MS) according to the conditions below. The LLOQ (lower level of quantitation) was typically <3 ng/mL.
(§2) Analysis of pharmacokinetic parameters was performed for each enantiomer via LC/MS bioanalytics and WinNonlin™ analysis (version 4.0.1; Pharsight Corp., Mountain View, Calif.), commercial software designed for the analysis of PK data. The PK modeling was based on a non-compartmental model with gradual input into the central compartment. Computation of the area under the curve (AUC) was based on the sum of trapezoidal areas for the plotted plasma concentration-time data. AUC and associated parameters were estimated by log-linear regression analysis of the terminal phase.

[4] = Dog pharmacokinetics of the enantiomers after oral dosing of racemic AV1013; assay type: in vivo
Method: Three male beagle dogs were dosed orally with 10 mg/kg racemic AV1013 via gavage. AV1013 was dissolved in water at 5 mg/ml and dosed via gavage at a volume of 2 ml/kg. Blood samples were collected via the jugular vein at 5, 15 and 30 minutes, 1, 2, 4, 6, 8, and 24 hours post dosing.
as §1, §2

[5] = target: T1, rhMIF (recombinant human Macrophage migration Inhibitory Factor) (Homo sapiens, UniProt P14174); assay: MIF-induced migration of human peripheral blood monocytes (PBMCs); assay type: cell-based; conditions: rhMIF 90 nM, dilution series of inhibitor
T1 sequence (P14174 2-115 limits assumed): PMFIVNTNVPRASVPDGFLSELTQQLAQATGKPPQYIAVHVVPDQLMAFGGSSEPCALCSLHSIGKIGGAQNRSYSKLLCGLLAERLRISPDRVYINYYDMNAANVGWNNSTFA
Method: The chemo attractant activities of rhMIF (recombinant human Macrophage migration Inhibitory Factor) and the effect of inhibitors were measured using human peripheral blood monocytes (PBMCs) isolated from whole blood by centrifugation on Histopaque-1077 (Sigma). The cells were washed in RPMI-1640, diluted to 1×10^6 cells/ml and analyzed immediately. These assays were carried out in 24 well tissue culture plates utilizing 8.0 μm cell culture inserts (Falcon). Recombinant hMIF (90 nM), diluted in RPMI was placed in the cells of a 24 well plate with or without inhibitor (10-fold molar excess or dilution series) and allowed to incubate for 30 min at 37° C., 5% CO2. Washed human monocytes were added to the upper chamber of 8.0 μm cell culture inserts and allowed to incubate for 3 hrs at 37° C., 5% CO2. Cells that migrate through the membrane were fixed in methanol and stained with Geimsa, prior to cell counting using light microscopy.
Results are expressed as the mean number of cells counted per high power field for each of two replicates to obtain statistically significant data. (Legend: −Star=no human MIF, Skull=no human MIF+10 uM (S)-AV1013. See FIGS. 5A and 5B.

formalin paw model = assay: Inflammatory pain model (formalin paw model) in mice; assay type: in vivo; conditions: mice, 300 mg/kg p.o. 60 min before the test
Method: The model employed is described in detail by Wheeler-Aceto et al (Psychopharmacology, 104, p 35-44, (1991)). Briefly, mice were given an intraplantar injection of 5% formalin (25 μl) into the posterior left paw. […] Mice were briefly observed at 1 minute intervals between 15 and 50 minutes after the injection of formalin and the number of times mice were observed licking the injected paw was recorded. 10 mice were studied in each group. The test was performed blind.
AV1013-S was evaluated at 3 doses (10, 25 and 50 mg/kg), administered p.o. 60 minutes before the test (i.e. 45 minutes before formalin), and compared with a vehicle control group. Gabapentin (300 mg/kg p.o.), administered under the same experimental conditions, was used as reference substance. The experiment therefore included 5 groups.
Data were analyzed by comparing treated groups with vehicle control using unpaired Mann-Whitney U tests.

[6] = oral 25 mg/kg racemic AV1013, plasma
[7] = oral dosing of racemate, rounded values
[8] = beagle dog, oral 10 mg/kg racemic AV1013, plasma
[9] = dog, oral dosing of racemate, rounded values

## CC(N)C(=O)c1c(C(C)C)nn2ccccc12 (racemic) [AV1013, 2-amino-1-(2-isopropylpyrazolo[1,5-a]pyridin-3-yl)propan-1-one]
[1]; free base (or hydrochloride salt where stated), in solution
  stability / racemization in solution: unstable
[2]
  in vivo activity in a rat model of neuropathic pain: significant in vivo activity
Rolipram binding site
  inhibition of the Rolipram binding site: 43%

## CC(C)c1nn2ccccc2c1C(=O)[C@@H](C)N [(R)-AV1013]
[3]; [6]
  AUC last: 340 ng·h/mL
  Cmax: 190 ng/mL
[3]; [7]
  calculated area under the curves (AUC): 300 ng·h/mL
  mean peak plasma levels (Cmax): 200 ng/mL
[4]; [8]
  AUC last: 7640 ng·h/mL
  Cmax: 1140 ng/mL
[4]; [9]
  calculated area under the curves (AUC): 7600 ng·h/mL
  mean peak plasma levels (Cmax): 1100 ng/mL
[2]
  in vivo activity in a rat model of neuropathic pain: little or no in vivo activity
[2]; rat CCI, oral 100 mg/kg, 2 hours post-dosing
  attenuation of mechanical allodynia (50% paw withdrawal threshold): essentially no activity
[5]
  antagonism of MIF-induced cell migration: antagonize MIF-induced macrophage migration in a dose-dependent fashion; also recorded: antagonize MIF-induced mononuclear cell migration in a similar dose dependent fashion

## CC(C)c1nn2ccccc2c1C(=O)[C@H](C)N.Cl [(S)-AV1013.HCl, (S)-2-Amino-1-(2-isopropylpyrazolo[1,5-a]pyridin-3-yl)propan-1-one hydrochloride]
[1]; hydrochloride salt, optimal storage and handling conditions to minimize exposure to moisture
  degree of racemization on storage: approximately 2%

## NCC1(CC(=O)O)CCCCC1 [Gabapentin, reference compound]
Formalin paw model
  % Change from Control: −83%
Formalin paw model; p < 0.01
  Licking Score (Mean +/− SEM): 2.6 +/− 0.8 *
